The data set can be described thus: Human HepG2 cell viability assay in 384 well format. Further details: dose 125 nL, time 70.5 hour; cytotoxicity at 70.5 h: concentration not given beside the values. The settings on record: HepG2 cells, read-out: Inhibition. Format: toxicity, cell-based.
On to `CCCn1ncc(-c2ccnc(N[C@@H]3C[C@@H]4CC[C@H]3C4)n2)c1C`, for which the cytotoxicity at 70.5 h was -2.1%. `CC(=O)c1cnc(NCC2OCCc3ccccc32)nc1C` (stereo unspecified): the cytotoxicity at 70.5 h was -9.22%. As to `CC(c1ccncn1)N(C)Cc1cc(O)c2cc(F)ccc2n1` (stereo unspecified), the cytotoxicity at 70.5 h is -8.14%. For the compound `COCCN1C(=O)[C@H]2CC[C@@H]1CN(c1nccc(C)n1)C2`, the cytotoxicity at 70.5 h was -9.1%.

Turning to `CC(C(N)=O)N1CCc2onc(-c3cccc(F)c3)c2C1` (stereo unspecified), the cytotoxicity at 70.5 h was -12.5%. Turning to `CNc1ncc(C(=O)N2CCCC(CO)(CCCOC)C2)cn1` (stereo unspecified), the cytotoxicity at 70.5 h stood at 4.14%. The same measure for `COc1ccc(C)cc1NC(=O)c1coc(C)n1`: -5.37%; for `C=C(C)COc1cccc(C(=O)NCCCc2nnn[nH]2)c1`: -12.4%; for `COc1cc(C)cc(C(C(=O)O)N(C)Cc2cnn(C)c2)c1OC` (stereo unspecified): 4.79%.

On to `Cc1cnc(NCCCN2CCc3ccccc32)nc1`, for which the cytotoxicity at 70.5 h is -3.85%. Take `O=C1N(c2ccccc2)Cc2n[nH]c(=O)n21`: the cytotoxicity at 70.5 h was -0.951%. For `Cc1ccc(C(=O)NCCC2CCN(C)CC2)cc1N(C)S(C)(=O)=O`, the cytotoxicity at 70.5 h worked out at 24%.

Take `CN(C)[C@H]1CCCCN(C(=O)c2cccc(N3CCS(=O)(=O)CC3)c2)C1`: the cytotoxicity at 70.5 h was -8.16%. For `CC(C)n1cc(CN(Cc2ccc(F)cc2)CC2CCCO2)cn1` (stereo unspecified), the cytotoxicity at 70.5 h amounted to 15.6%. Take `Cc1cnn(CCCN2C(=O)CCc3ccccc32)c1`: the cytotoxicity at 70.5 h was determined as 11.4%. With `OC1(c2cn(CC3CCN(C4CCSC4)CC3)nn2)CCCC1` (stereo unspecified), the cytotoxicity at 70.5 h stood at 1.14%. The same measure for `COCc1ncc(CN(Cc2ccncc2)Cc2ccc(C)s2)cn1`: -6.86%. In the case of `COc1cccc(C(=O)Nc2ccc(OC3CCN(C)CC3)cc2)c1`, the cytotoxicity at 70.5 h is -4.5%. On to `CCN1CCN(S(=O)(=O)c2ccc(Cc3cc(C)n[nH]c3=O)cc2)CC1`, for which the cytotoxicity at 70.5 h is -10.8%. Turning to `O=C1N(c2ccc(F)cc2)Cc2n[nH]c(=O)n21`, the cytotoxicity at 70.5 h was -2.51%. Turning to `CC1CCN(CCCNC(=O)c2ccc(N(C)S(C)(=O)=O)cc2Cl)CC1`, the cytotoxicity at 70.5 h was -4.93%. Take `COCCCn1cnnc1C(C)NC(=O)c1[nH]c2ccc(C)cc2c1C` (stereo unspecified): the cytotoxicity at 70.5 h is -4.22%.

Take `CCCS(=O)(=O)N1CCN(c2cc(-n3ccnc3)nc(C)n2)CC1`: the cytotoxicity at 70.5 h was -3.96%. The same measure for `CC(=O)c1cc(CN2C[C@H]3CC[C@@H]2CN(Cc2c(C)noc2C)C3)cs1`: -8.51%; for `CCSc1nsc(NC(=O)COc2ccc3c(c2)OCO3)n1`: -8.05%; for `CN(C)S(=O)(=O)N1CC[C@]2(O)CCN(c3ncccn3)C[C@@H]2C1`: -9.31%.

With `O=C(Cc1n[nH]c(-c2cncc(Br)c2)n1)NCc1ccccn1`, the cytotoxicity at 70.5 h was -8.81%. With `Cc1ccc2c(C(=O)N(C)C)cc(-c3cnn(CCO)c3)nc2c1C` the figure was -3.4%; with `CCOCCC(=O)N1CCCC(CO)(CC2CC2)C1` (stereo unspecified), -11%; with `Cc1ccc2[nH]c(=O)cc(C(=O)NCCCn3nccc3C3CC3)c2c1`, -16%. For the compound `COC[C@]1(O)CCN(c2cc(N3CCOCC3)ncn2)CC1(C)C`, the cytotoxicity at 70.5 h is -9.52%. As for `O[C@H]1[C@H](n2cc(CN3CCCC3)nn2)c2ccccc2C12CCNCC2`, the cytotoxicity at 70.5 h was -7.31%. In the case of `COc1ccccc1C(=O)Nc1ccc(OC2CCN(C)CC2)cc1`, the cytotoxicity at 70.5 h was -6.64%.

For the compound `O=c1[nH]c(NC2CCCC2)nc2nccc(-c3ccco3)c12`, the cytotoxicity at 70.5 h was -8.71%.

Regarding `CCCc1nc(C(=O)N[C@H]2COC[C@@H]2N2CCN(C)CC2)cs1`, the cytotoxicity at 70.5 h was -7.8%. With `CN1CC(c2n[nH]c(=O)n2-c2cccc(Cl)c2)CC1=O` (stereo unspecified) the figure was -12.8%; with `Cc1cc(C)cc(S(=O)(=O)NCC2CNCCOC2)c1` (stereo unspecified), -1.55%; with `O=C(O)CSc1nnc(-c2cn[nH]c2)n1-c1ccccc1Cl`, 17.6%.

In the case of `CC(=O)NCCOc1cccc(Br)c1`, the cytotoxicity at 70.5 h turned out to be 2.45%. For `COC(=O)c1cc2c(=O)[nH]c(=O)n(CCc3ccccc3)c2nc1C`, the cytotoxicity at 70.5 h came out at 4.39%.

Take `CCC(Oc1ccc(N(C)S(C)(=O)=O)cc1)C(=O)NC` (stereo unspecified): the cytotoxicity at 70.5 h is -1.39%.

Regarding `CSc1nccc(N2C[C@@H](CN3CCCCC3)[C@@H](CO)C2)n1`, the cytotoxicity at 70.5 h was determined as 27.1%. `Cc1cccc(C2CC(=O)Nc3c2c(=O)[nH]n3C(C)C)c1` (stereo unspecified): the cytotoxicity at 70.5 h was -11.1%. With `O=C(NCCNc1cc(N2CCCC2)ncn1)c1cnccn1` the figure was -7.66%. Consider `CCC(=O)NC(C)c1ccccc1C` (stereo unspecified), for which the cytotoxicity at 70.5 h is 0.0127%. With `C[C@@H]1CN(CCC(=O)N(C)Cc2ccccc2)CC[C@@]1(O)C1CCC1` the figure was 21.4%; with `CS(=O)(=O)N1CCN(c2ccnc(N3CCCCC3)n2)CC1`, -6.15%; with `Cc1nc2nc(C)c3c(=O)n(-c4ccn[nH]4)ccc3n2n1`, 10.9%. With `NC(=O)c1ccc(OCCCN2CCC3(CC2)OCCCC3O)cc1` (stereo unspecified) the figure was -1.53%. For `CCC(C)c1ccc(NC(=O)C2CCN(C(=O)N(C)C)CC2)cc1` (stereo unspecified), the cytotoxicity at 70.5 h was -4.2%.

Take `Cc1onc(N)c1S(=O)(=O)N1CCCCC1C` (stereo unspecified): the cytotoxicity at 70.5 h was -2.67%.

Take `Cc1cccnc1CN(C)C(C(=O)O)c1ccc(-n2cccn2)cc1` (stereo unspecified): the cytotoxicity at 70.5 h is -2.91%. Regarding `Nc1ccc(C(=O)N2CCCC(C(=O)CCc3ccccc3)C2)cn1` (stereo unspecified), the cytotoxicity at 70.5 h is -20%. With `CC(C)(C)c1cn(CC2CCCN(c3cnc4ccccc4n3)C2)nn1` (stereo unspecified) the figure was 0.262%; with `COCc1nc2ncc3c(=O)n(-c4ccccc4OC)ccc3n2n1`, -5.8%; with `COc1ncc(CN(CCN(C)C)Cc2ccc(C)s2)cn1`, 12.8%. With `Cc1nc2ncnn2c2ccn(-c3cccnc3O)c(=O)c12`, the cytotoxicity at 70.5 h is -15.9%.

As to `CC(C)c1nc(CN(C)Cc2ncccc2C(=O)O)cs1`, the cytotoxicity at 70.5 h is 4.17%. Take `COCCN(Cc1ccncc1)C(=O)C1COc2c(cccc2OC)C1` (stereo unspecified): the cytotoxicity at 70.5 h worked out at 0.81%. The same measure for `CCc1ccc(C2CC(=O)Nc3c2c(=O)[nH]n3C(C)C)cc1` (stereo unspecified): 0.136%.

Take `Cc1cnc(N2CCCC(O)C2)nc1-c1ccnn1C` (stereo unspecified): the cytotoxicity at 70.5 h turned out to be 10.8%. As to `O=C(Cc1ccc(F)cc1)NCCNc1cc(N2CCCC2)ncn1`, the cytotoxicity at 70.5 h was 22.2%. `Cc1ccc(-c2cc(-c3nc(CN4CCN(C)CC4)no3)n[nH]2)cc1`: the cytotoxicity at 70.5 h is 22.4%.

For `Cc1nc(C2CCCN(C(=O)c3ccnc(N(C)C)c3)C2)no1` (stereo unspecified), the cytotoxicity at 70.5 h is -3.61%.

For the compound `Cc1cn2c(n1)CCC(NC(=O)Cn1cncn1)C2` (stereo unspecified), the cytotoxicity at 70.5 h was -5.67%. On to `Cc1nnc2n1CCN(C(=O)CN(C)Cc1ccccc1)C2`, for which the cytotoxicity at 70.5 h is 19.2%. `NS(=O)(=O)c1ccc(C(=O)N2CCCC2c2ccccc2)o1` (stereo unspecified): the cytotoxicity at 70.5 h was -3.63%.

Turning to `O=C(CS(=O)(=O)Cc1cc(Cl)c2c(c1)OCO2)N1CCCC1`, the cytotoxicity at 70.5 h is -0.922%. As for `COCCOc1cccc(CNC(=O)CN2CCN(C)CC2C)c1` (stereo unspecified), the cytotoxicity at 70.5 h was 10.3%. For the compound `CC(C)OCCN1CCN(C(C)c2nc(C3CC3)no2)CC1` (stereo unspecified), the cytotoxicity at 70.5 h amounted to 17.9%. With `CC(=O)N(C)CCCc1cc(-c2ccccc2)no1` the figure was -4.09%.

Values taken from ChEMBL document CHEMBL3507680, “University of Dundee, Gates Library screen for HepG2 cell viability”.
